# From patent publication US20060229358A1, “Pharmaceutical composition containing flavonoids” (Taipei Medical University, priority 2005, published 2006)
# Like-named read-outs stand apart in the source and are kept apart here.
# Tests used:
# [1] = target: T1, high affinity rolipram binding sites (HARBS, PDE4H); assay: Binding to particulate HARBS of whole brain, displacement of [3H]-rolipram (Assay II); parameters: species or system guinea pig; conditions: for IC50: guinea pig whole brain particulates; for bound to HARBS of the whole brain cell particulates: 300 μM, guinea pig, preliminary experimental data
# T1 construct: IC50 for displacement of [3H]-rolipram from HARBS; other: 300 μM, guinea pig, preliminary experimental data; other: guinea pig whole brain particulates; over 300 μM not available due
# Experimental: The binding experiments are carried on basis of the methods of Schneider et al. and Zhao et al. with a small modification. Under a protocol approved by the Animal Care and Use Committee of Taipei Medical University, five male guinea pigs (Hartley), weighing 500-600 g, were anesthetized. The whole brains taken therefrom were homogenized with in 10 volumes of cold medium (pH 6.5) containing 20 mM Bis-Tris, 2 mM benzamidine, 2 mM EDTA, 50 mM sodium chloride, 0.1 mM phenylmethanesulfonyl fluoride (PMSF), and 1 mM dithiothreitol. At 4° C., the homogenate was centrifuged at 170 g for 15 min for removing blood vessels and connective tissues, and the supernatant thereof was then re-centrifuged at 40,000 g for 30 min for separating the particulates from the cytosol of cells.
# After incubation, the reaction was stopped by transferring the reaction vessel to a bath of crashed ice. Then the reaction mixture was filtered through a punched glass fiber filter (Whatman GF/B) placed in a mini funnel, which was adopted to a 1.5 ml of Eppendorff's tube for collecting the filtrate in the mini centrifuge at 1000 rpm for 10 seconds. By the same way (centrifugation), it is further washed with 0.3 ml reaction buffer each for three times. The Whatman GF/B filter was mixed with 2 ml of cocktail and counted by the β-scintillation counter (Backman, Fullerton, Calif., USA) for counting the radioactivity thereof.
# PDE4L (LARBS) = test system: T2, PDE4L (LARBS); assay: Binding to peripheral LARBS (PDE4L); conditions: considered equal to the PDE4 IC50
# T2 construct: other: considered equal to the PDE4 IC50
# Source text: [21]. […] In the brain, there are two binding sites for rolipram, which are high (HARBS) and low affinity rolipram binding sites (LARBS), while in the periphery of bronchi and lung there exist only LARBS. Generally, the anti-inflammatory and the bronchodilatory effects of rolipram are considered as its ability to bind with LARBS [21].
# PDE4 = assay: Inhibition of cyclic nucleotide PDE activity (Assay I), PDE4, incl. Lineweaver-Burk analysis; format: biochemical, guinea pig; conditions: from the IC50s of Table 2
# Experimental: Under a protocol approved by the Animal Care and Use Committee of Taipei Medical University, five male guinea pigs (Hartley), weighing 500-600 g, were sacrificed. The lungs (15 g) or hearts (4 g) taken therefrom were chopped into small pieces and homogenized with a glass/teflon homogenizer (Glas-Col, Terre Haute, Ind., USA) in 10 volumes of cold medium (pH 6.5) containing 20 mM Bis-Tris, 2 mM benzamidine, 2 mM EDTA, 50 mM sodium chloride, 0.1 mM phenylmethanesulfonyl fluoride (PMSF), and 1 mM dithiothreitol. At 4° C., the homogenate was centrifuged at 170 g for 15 min, and the supernatant thereof was then re-centrifuged at 40,000 g for 30 min. […] The column was washed with two bed volumes of homogenate buffer to remove unbound material, where the resin beads therein will bind with proteins, such as PDE proteins. Proteins bound to the Q-sepharose beads were eluted with various concentrations (0.23, 0.34, 0.44, 0.69, and 1.00 M) of NaCl dissolved in homogenate buffer (for each concentration, 40-50 mL elution buffer were applied) at a flow rate of 30 ml/h. Fractions (3 ml each) were collected, and ethylene glycol (EG) was added thereto until a final concentration of 30% (v/v). And then the samples were frozen at −70° C.
# The activities of PDE1-5 in the homogenate were measured with a two-step procedure according to the method of Thompson and Appleman, using cAMP with [^3H]-cAMP or cGMP with [^3 H]-cGMP as substrates. The PDE enzyme prepared (25 μl) with 10 μl inhibitor or the solvents therefor was incubated for 30 min at 37° C. in a total assay buffer, where the final volume of the assay is amounted to 100 μl. In accordance with the features of the PDE isozymes, the assay buffer contains 50 mM Tris/HCl (pH 7.4), 3 mM MgCl2, 1 mM dithiothreitol, and 0.05% BSA, and optionally contains 1 uM cAMP with 0.2 μCi [^3H]-cAMP as a substrate alone or in the presence of 0.1 unit calmodulin with 10 μM CaCl2, or 5 μM cGMP, and 1 μM cGMP with 0.2 μCi [^3H]-cGMP as another substrate alone or in the presence of 0.1 unit calmodulin with 10 μM CaCl2.
# The PDE enzyme and the inhibitors (or their solvent) therefor were mixed and incubated on ice for 30 min previously, and then mixed with the assay buffer. The assay was initiated by transferring the mixture to a water bath at 37° C. Following the other 30 min incubation, the reaction was stopped by transferring the reaction vessel to a bath of boiling water for 3 min. After cooling on ice, 20 μl of the 1 mg/ml of Crotalus atrox venom was added to the reaction mixture, and the mixture was incubated at 37° C. for 10 min. The uncatalyzed substrates, such as cAMP, [^3H]-cAMP, cGMP, or [^3H]-cGMP were removed by the addition of 500 μl of a 1-in-1 Tris-HCl (40 mM) buffer suspension of Dowex resin (1×8-200) with incubation on ice for 30 min, since the bindings of the cyclic nucleotides and the resin. Each tube was then centrifuged for 2 min at 6000 rpm, and 100 μl of the supernatant was removed and counted by a β-counter for calculating the enzyme (PDEs) activity.
# The dissociation constant of inhibitor binding (Ki) value was determined from the equation of apparent Km as a function of the inhibitor concentration (insert in A and B, respectively). The slope of the equation is equal to the value of […] (where KM is Michaelis constant). The amounts of the total proteins are calculated based on the analytical method reported by Bradford. In FIGS. 1A and 1B, all enzyme activities are shown as nmole of substrate per mg of proteins per minute (nmole/mg/min) hydrolyzed.
# The IC50 values of flavonoids and various reference drugs were calculated using non-linear regression analysis by the software SigmaPlot 7.0 (Sigma Chemical, St. Louis Mo., USA).
# [2] = 2 nM [3H]-rolipram, FIG. 2, read-out: IC50 for displacement of [3H]-rolipram from HARBS
# [3] = over 300 μM not available due to solubility, read-out: concentration for having 50% of HARBS bound
compound,measurement,setting,value
COc1ccc(C2CC(=O)c3c(O)cc(O)cc3O2)cc1O (stereo not drawn) [Hesperetin],IC50,[1]; [2],> 300 µM
same,bound to HARBS of the whole brain cell particulates,[1],17.5%
same,IC50,[1]; [3],> 300 µM
same,concentration for binding to an half of the LARBS,PDE4L (LARBS),28.2 µM
COc1cc(O)c2c(=O)c(-c3ccc(O)cc3)coc2c1 [Prunetin],selectivity among PDE1-5,PDE4,more-selective inhibition on PDE4
same,IC50,[1]; [2],> 300 µM
same,bound to HARBS of the whole brain cell particulates,[1],24.2%
same,IC50,[1]; [3],> 300 µM
same,concentration for binding to an half of the LARBS,PDE4L (LARBS),61.9 µM
